Data taken from patent US9095567B2, “Vaccine formulations” (priority 2010, dated 2015).

Key:
Type in all cases: cell-based
[1] = tested on: Candida albicans (ATCC#10231); assay: Preservative effectiveness test, single challenge
Excerpt: (§1) To test for preservative effectiveness, aliquots of vaccine were inoculated with the following organisms:
(§2) Thirty milliliters (ml) of each vaccine formulation with and without Thimerosal or 2-PE at indicated concentrations or saline containing Thimerosal at 0.02% were inoculated in triplicates with a suspension of each test organism to achieve an inoculum density of approximately 10^5 to 10^6 CFU/ml at time 0 (CFU=colony forming units). […] Samples were mixed to ensure even distribution of challenged organisms. Another 30 ml of vaccine in triplicate (with and without preservative) were used as a negative control and spiked with the culture media alone to evaluate the inherent contamination that might be present in the sample or media. Each of the three series of vaccines, and positive and negative controls, was then separately incubated at 20 to 25° C. Aliquots (1 ml) of the challenged samples and controls (or their appropriate serial ten fold dilutions) were enumerated by plate count in duplicates at time 0 and at intervals of 6 hours, 24 hours, 7 days, 14 days and 28 days post-inoculation.
(§3) USP 29 NF 24 Supplement 2 (USP) requires that, after an inoculation of bacterial micro-organism(s), there is at least 1.0 log reduction from the initial calculated count (i.e., at time of inoculation) at 7 days, at least 3.0 log reduction at 14 days from the previous value measured and no increase at 28 days from the previous measured value. For yeast and fungi, the USP requirement is for there to be no increase from the time of inoculation to 7, 14 and 28 days.
(§4) EP requirements are more stringent. EP 5th Edition 5.6 (5.1.3) requirements for parenteral and ophthalmic preparations has two components: Category A and Category B. Category A (EP-A) requires, for bacteria, at least 2.0 log reduction from the initial calculated count at 6 hours after inoculation, at least 3.0 log reduction at 24 hours from the previous measured value, and no recovery at 28 days. Category B (EP-B) requires, for bacteria, at least 1.0 log reduction at 24 hours from the initial calculated count, at least 3.0 log reduction at 7 days from the previous value measured and not more than 0.5 log increase at 28 days from the previous value measured (i.e., no increase). For yeast and fungi, Category A requires at least 2.0 log reduction at 7 days and no increase from the previous value measured at 28 days, and Category B requires at least 1.0 log reduction at 14 days and no increase from the previous value measured at 28 days.
(§5) Plates containing <300 CFU for bacteria or <100 CFU for yeast or mold were used during enumeration. For single challenge studies, arithmetic average count of all surviving micro-organisms in triplicate and on duplicate plates (6 values per time point) plus their diluted samples were measured and normalized as CFU/ml. The results are expressed as mean log10 CFU/ml reduction (compared to time 0). In this case, the count of surviving micro-organisms is evaluated at time 0 as the baseline and compared to incubation time of 6 hours, 24 hours, 7 days, 14 days and 28 days.

[2] = tested on: Staphylococcus aureus (ATCC #6538); assay: Preservative effectiveness test, single challenge
Excerpt: as §1, §2, §3, §4, §5

[3] = tested on: P. aeruginosa, S. aureus, E. coli and B. subtilis; assay: Preservative effectiveness test, multi-challenge method, all challenge organisms
Protocol: To represent the worst reasonable case of contamination that may occur in practice during the repeated use of a multi-dose presentation, WHO requires safety testing with deliberate exposure to multiple contamination events using bacterial strains, Pseudomonas Aeruginosa (“PA”), Staphylococcus Aureus (“SA”), Escherichia coli (“EC”) and Bacillus subtilis (“BA”). Formulations are spiked with 5×10^3 CFU/ml of each organism at times 0, 6 hours, 24 hours, 7 days and 14 days after initial challenge and stored either at 2-8° C. or at 22-24° C. to mimic the potential storage conditions in practice.
To assess the appropriateness of WHO multi-dose Open Vial Policy of vaccines in multiple immunization sessions for up to maximum of four weeks, experimental design provided by WHO was implemented. In this study, the effectiveness of Thimerosal was evaluated at the concentration that is present in the majority of U.S. licensed vaccines (0.01%), as well as at a higher concentration of 0.02%. To represent the worst reasonable case of contamination that may occur in practice during the repeated use of a multi-dose presentation, and to test WHO requirements, Prev(e)nar 13 vaccine formulations with 0.01 or 0.02% Thimerosal or with 5.0 mg/dose of 2-PE were deliberately exposed to multiple contamination events using WHO recommended bacterial strains, P. aeruginosa, S. aureus, E. coli and B. subtilis. Formulations were spiked with 5×10^3 CFU/ml of each organism at times 0, 6 hours, 24 hours, 7 days and 14 days after initial challenge and stored either at 2-8° C. or at 22-24° C. to mimic the potential storage conditions in practice. Saline formulation containing 0.02% Thimerosal was also used as a control to evaluate the potential impact of Prev(e)nar 13 on the antimicrobial efficacy of Thimerosal in the formulation.

[4] = Prev(e)nar 13 formulation, single challenge, 20 to 25° C.
[5] = 0.01% Thimerosal in Prev(e)nar 13, single challenge
[6] = 0.02% Thimerosal in saline (no Prev(e)nar 13) versus vaccine formulation, single challenge
[7] = 0.02% Thimerosal in Prev(e)nar 13, 22-24° C. storage
[8] = 0.02% Thimerosal in saline control formulation without vaccine

SMILES: OCCOc1ccccc1 [2-PE, 2-phenoxyethanol]
- EP (EP-B) vaccine safety requirements, C. albicans [1, 4]: Fails
- USP vaccine safety requirements, C. albicans [1, 4]: Meets
- time to reduction of S. aureus to baseline after inoculation ([2]; 5.0 mg/dose 2-PE in Prev(e)nar 13, single challenge): 24 h
- EP (EP-B) vaccine safety requirements, S aureus [2, 4]: Fails
- USP vaccine safety requirements, S aureus [2, 4]: Meets
- EP-B criteria under multiple challenge ([3]; 5 mg/dose 2-PE in Prev(e)nar 13): met
- preservative effectiveness compared with 0.01% Thimerosal ([3]; 5 mg/dose 2-PE, multi-challenge method, regardless of storage temperature, all organisms tested): superior
- rate of antimicrobial effectiveness compared to Thimerosal ([3]; 2-PE at 3.5 to 5 mg/dose): much higher

SMILES: C[CH2][Hg][S]c1ccccc1C(=O)[O-].[Na+] [Thimerosal]
- inhibition of C. albicans relative to P. aeruginosa and A. niger [1, 5]: weaker
- growth inhibitory effectiveness against C. albicans [1, 6]: slightly improved
- reduction of contamination levels, C. albicans ([1]; 0.02% Thimerosal versus 0.01% in Prev(e)nar 13, single challenge): more pronounced
- inhibition of S. aureus relative to P. aeruginosa and A. niger [2, 5]: weaker
- growth inhibitory effectiveness against S. aureus [2, 6]: slightly improved
- decline of S. aureus ([2]; Thimerosal in Prev(e)nar 13, single challenge): slow decline
- antibacterial effectiveness by organism ([3]; 0.01% Thimerosal in Prev(e)nar 13, multiple challenges): highest on B. subtilis followed by P. aeruginosa
- EP requirements EP-A applied to multi-challenge studies [3, 7]: did not meet
- EP requirements EP-B applied to multi-challenge studies [3, 7]: did not meet
- acceptance criteria of EP-A when multiply challenged [3, 8]: did not meet
- acceptance criteria of EP-B when multiply challenged [3, 8]: did not meet
- preservative effectiveness, concentration dependence ([3]; Thimerosal 0.02% versus 0.01%, multiple challenges): more effective
- rate of inactivation ([3]; Thimerosal in Prev(e)nar 13, particularly against S. aureus and E. coli): slow
- EP-B criteria under multiple challenge ([3]; Thimerosal, any version tested): no version of Thimerosal was able to do so
- preservative effectiveness, temperature dependence ([3]; Thimerosal, storage at 22-24° C. versus 2-8° C., multiple challenges): more effective
